Assay results reported in patent publication US7638639B2, “Substituted pyrrolidine and related compounds” (Theravance, Inc., priority 2003, dated 2009).
Read-outs that look alike come from different tables or passages of the source.

Key:
[1] = target: T1, hM2 muscarinic receptor subtype (Homo sapiens, UniProt P08172); assay: Radioligand binding assay ([3H]-NMS displacement), hM2; conditions: for Ki: CHO cell membranes, [3H]-NMS 1 nM, read-out: hM2 binding affinity (Ki); for Δ hM2: change in binding affinity relative to compound of the invention: ratio of hM2 Ki values
T1 construct: expressed in transfected cells
T1 sequence (P08172 1-466): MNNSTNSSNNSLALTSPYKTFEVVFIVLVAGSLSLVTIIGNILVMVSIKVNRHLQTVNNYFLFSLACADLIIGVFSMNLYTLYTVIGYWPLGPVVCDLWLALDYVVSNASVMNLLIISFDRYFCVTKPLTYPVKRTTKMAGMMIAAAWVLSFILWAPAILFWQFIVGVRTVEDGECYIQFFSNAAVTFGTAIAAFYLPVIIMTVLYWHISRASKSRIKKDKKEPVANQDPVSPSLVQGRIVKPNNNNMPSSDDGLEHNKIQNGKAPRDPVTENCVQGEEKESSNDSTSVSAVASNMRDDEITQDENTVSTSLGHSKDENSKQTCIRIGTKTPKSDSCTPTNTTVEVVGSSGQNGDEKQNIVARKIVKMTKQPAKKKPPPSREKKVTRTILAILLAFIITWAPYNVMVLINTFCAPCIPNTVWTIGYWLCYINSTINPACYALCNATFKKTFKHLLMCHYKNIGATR
Experimental: (§1) A. Membrane Preparation from Cells Expressing hM1, hM2, hM3 and hM4 Muscarinic Receptor Subtypes
(§2) CHO (Chinese hamster ovary) cell lines stably expressing cloned human hM1, hM2, hM3 and hM4 muscarinic receptor subtypes, respectively, were grown to near confluency in medium consisting of HAM's F-12 supplemented with 10% FBS (Fetal Bovine Serum) and 250 μg/mL Geneticin. The cells were grown in a 5% CO2, 37° C. incubator and lifted with 2 mm EDTA in dPBS. Cells were collected by 5 minute centrifugation at 650×g, and cell pellets were either stored frozen at −80° C. or membranes were prepared immediately. For membrane preparation, cell pellets were resuspended in lysis buffer and homogenized with a Polytron PT-2100 tissue disrupter (Kinematica AG; 20 seconds×2 bursts). Crude membranes were centrifuged at 40,000×g for 15 minutes at 4° C. The membrane pellet was then resuspended with resuspension buffer and homogenized again with the Polytron tissue disrupter. The protein concentration of the membrane suspension was determined by the method described in Lowry, O. et al., 1951, […]: 193, 265. All membranes were stored frozen in aliquots at −80° C. or used immediately. Aliquots of prepared hM5 receptor membranes were purchased directly from Perkin Elmer and stored at −80° C. until use.
(§3) B. Radioligand Binding Assay on Muscarinic Receptor Subtypes hM1, hM2, hM3, hM4 and hM5
(§4) Radioligand binding assays were performed in 96-well microtiter plates in a total assay volume of 100 μL. CHO cell membranes stably expressing either the hM1, hM2, hM3, hM4 or hM5 muscarinic subtype were diluted in assay buffer to the following specific target protein concentrations (μg/well): 10 μg for hM1, 10-15 μg for hM2, 10-20 μg for hM3, 10-20 μg for hM4, and 10-12 μg for hM5. The membranes were briefly homogenized using a Polytron tissue disruptor (10 seconds) prior to assay plate addition. Saturation binding studies for determining KD values of the radioligand were performed using L-[N-methyl-3H]scopolamine methyl chloride ([^3H]-NMS) (TRK666, 84.0 Ci/mmol, Amersham Pharmacia Biotech, Buckinghamshire, England) at concentrations ranging from 0.001 nM to 20 nM. Displacement assays for determination of Ki values of test compounds were performed with [^3H]-NMS at 1 nM and eleven different test compound concentrations. The test compounds were initially dissolved to a concentration of 400 μM in dilution buffer and then serially diluted 5× with dilution buffer to final concentrations ranging from […] to […]. The addition order and volumes to the assay plates were as follows: 25 μL radioligand, 25 μL diluted test compound, and 50 μL membranes. Assay plates were incubated for 60 minutes at 37° C. Binding reactions were terminated by rapid filtration over GF/B glass fiber filter plates (PerkinElmer Inc., Wellesley, Mass.) pre-treated in 1% BSA. Filter plates were rinsed three times with wash buffer (10 mm HEPES) to remove unbound radioactivity. Plates were then air dried, and 50 μL Microscint-20 liquid scintillation fluid (PerkinElmer Inc., Wellesley, Mass.) was added to each well. The plates were then counted in a PerkinElmer Topcount liquid scintillation counter (PerkinElmer Inc., Wellesley, Mass.). Binding data were analyzed by nonlinear regression analysis with the GraphPad Prism Software package (GraphPad Software, Inc., San Diego, Calif.) using the one-site competition model. Ki values for test compounds were calculated from observed IC50 values and the KD value of the radioligand using the Cheng-Prusoff equation (Cheng Y; Prusoff W H. (1973) Biochemical Pharmacology, 22(23):3099-108). Ki values were converted to pKi values to determine the geometric mean and 95% confidence intervals. These summary statistics were then converted back to Ki values for data reporting.

[2] = target: T2, hM3 muscarinic receptor subtype (Homo sapiens, UniProt P20309); assay: Radioligand binding assay ([3H]-NMS displacement), hM3; conditions: for Δ hM3: change in binding affinity relative to compound of the invention: ratio of hM3 Ki values
T2 construct: expressed in transfected cells
T2 sequence (P20309 whole entry): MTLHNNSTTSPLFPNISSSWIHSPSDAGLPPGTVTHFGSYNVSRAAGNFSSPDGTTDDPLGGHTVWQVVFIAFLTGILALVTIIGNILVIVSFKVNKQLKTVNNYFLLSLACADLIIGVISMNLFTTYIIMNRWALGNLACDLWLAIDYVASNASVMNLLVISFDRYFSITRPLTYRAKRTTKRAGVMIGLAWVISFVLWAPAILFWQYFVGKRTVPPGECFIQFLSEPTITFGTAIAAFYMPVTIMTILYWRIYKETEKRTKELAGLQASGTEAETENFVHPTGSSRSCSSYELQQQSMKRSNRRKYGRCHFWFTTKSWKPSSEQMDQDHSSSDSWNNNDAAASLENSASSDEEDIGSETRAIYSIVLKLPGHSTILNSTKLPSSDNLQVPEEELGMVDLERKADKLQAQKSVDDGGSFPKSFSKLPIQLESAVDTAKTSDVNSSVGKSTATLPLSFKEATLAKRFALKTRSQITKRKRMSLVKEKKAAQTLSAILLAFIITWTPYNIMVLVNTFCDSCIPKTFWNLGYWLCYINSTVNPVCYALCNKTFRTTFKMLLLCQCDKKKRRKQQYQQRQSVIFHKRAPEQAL
Experimental: as §1, §2, §3, §4

[3] = CHO cell membranes, [3H]-NMS 1 nM, read-out: hM3 binding affinity (Ki)
[4] = radioligand displacement, read-out: Ki value for hM3

Ki [1] [nM] | Δ hM2: change in binding affinity relative to compound of the invention [1] | Ki [2, 3] [nM] | Δ hM3: change in binding affinity relative to compound of the invention [2] | Ki [2, 4] [nM] | SMILES
18 | ×39 | 2.5 | ×52 |  | CN(C)CCCCCCCCN1CC[C@@H](C(C(N)=O)(c2ccccc2)c2ccccc2)C1 [Comp. Ex. A, 2-[(S)-1-(8-Dimethylaminooctyl)pyrrolidin-3-yl]-2,2-diphenylacetamide, reference compound]
120 |  | 25 |  |  | CN(C)CCCCCCCCCN1CC[C@@H](C(C(N)=O)(c2ccccc2)c2ccccc2)C1 [Comp. Ex. B, 2-[(S)-1-(9-Dimethylaminononyl)pyrrolidin-3-yl]-2,2-diphenylacetamide, reference compound]
83 |  | 73 |  |  | CC(CCCCCCCN1CC[C@@H](C(C(N)=O)(c2ccccc2)c2ccccc2)C1)N(C)CCO (stereo partly drawn) [Comp. Ex. C, 2-{(S)-1-[8-N-(2-Hydroxyethyl)-N-methylaminononyl]pyrrolidin-3-yl}-2,2-diphenylacetamide, reference compound]
150 |  | 50 |  |  | NCCCCCCCCN1CC[C@@H](C(C(N)=O)(c2ccccc2)c2ccccc2)C1 [Comp. Ex. D, 2-[(S)-1-(8-Aminooctyl)pyrrolidin-3-yl]-2,2-diphenylacetamide, reference compound]
13 | ×6.3 | 5.1 | ×14 |  | NC(=O)C(c1ccccc1)(c1ccccc1)[C@@H]1CCN(CCCCCCCCNCCO)C1 [Example 8, 2-{(S)-1-[8-(2-Hydroxyethyl)aminooctyl]pyrrolidin-3-yl}-2,2-diphenylacetamide]
1.7 | ×70 | 0.66 | ×37 | < 50 | CNCCCCCCCCCN1CC[C@@H](C(C(N)=O)(c2ccccc2)c2ccccc2)C1 [Example 14, 2-[(S)-1-(9-Methylaminnonyl)pyrrolidin-3-yl]-2,2-diphenylacetamide]
 |  |  |  | < 50 | NC(=O)C(c1ccccc1)(c1ccccc1)[C@@H]1CCN(CCCCCCCCCNCc2ccccc2)C1 [Example 26, 2-[(S)-1-(9-Benzylaminononyl)pyrrolidin-3-yl]-2,2-diphenylacetamide]
 |  |  |  | < 50 | CNCCCCCCCCN1CC[C@H](C(C(N)=O)(c2ccccc2)c2ccccc2)C1 [Example 27, 2-[(R)-1-(8-Methylaminooctyl)pyrrolidin-3-yl]-2,2-diphenylacetamide]
 |  |  |  | < 50 | NC(=O)C(c1ccccc1)(c1ccccc1)[C@H]1CCN(CCCCCCCCNCc2ccccc2)C1 [Example 39, 2-[(R)-1-(8-Benzylaminooctyl)pyrrolidin-3-yl]-2,2-diphenylacetamide]
